The test system of assay [1] is IL-2 production, Jurkat cells. Briefly: Inhibition of IL-2 production in PHA-activated Jurkat cells (ELISA). Format: cell-based. To be noted: Homo sapiens, 1% FBS, given as activity class. As for the experimental part: Jurkat cells were placed in a 96 well plate (0.5 million cells per well in 1% FBS medium), and then a test compound of this invention was added at different concentrations. After 10 minutes, the cells were activated with PHA (final concentration 2.5 μg/mL) and incubated for 20 hours at 37° C. under 5% CO2. The final volume was 200 μL. Following incubation, the cells were centrifuged, and the supernatants collected and stored at −70° C. prior to assaying for IL-2 production. A commercial ELISA kit (IL-2 Eli-pair, Diaclone Research, Besancon, France) was used to detect production of IL-2, from which dose response curves were obtained. The IC50 value was calculated as the concentration at which 50% of maximum IL-2 production after stimulation was inhibited versus a non-stimulation control.
Background: In an ELISA, binding on a coated surface is turned into a signal by an enzyme label.

The next assay concerns the target T1, CRACM1/STIM1-CHOK1 (Homo sapiens, UniProt Q96D31).
T1 construct: Full length human Stim1, CracM1, CracM2 and CracM3 cDNA; Stim1 induced with doxycycline
Briefly: Patch clamp inhibition of ICRAC current in CRACM1/STIM1-CHOK1 cells. As to conditions: 500 nM; given as activity class. Format: cell-based. On the procedure:
Manual patch clamp experiments are conducted in the tight-seal whole-cell configuration at room temperature (21-25° C.). Patch pipettes are fashioned from borosilicate glass capillary tubes and have resistances between 2-4 MΩ after filling with standard intracellular solution. High resolution current recordings are acquired with a computer-based patch clamp amplifier system (EPC-10, HEKA, Lambrecht, Germany). All voltages are corrected for a liquid junction potential of 10 mV between external and internal solutions with glutamate as the intracellular anion. Currents are filtered at 2.9 kHz and digitized at 10 μs intervals. Capacitive currents and series resistance are determined and corrected before each voltage ramp using the automatic capacitance compensation of the EPC-10.
Automated patch clamp experiments are conducted with the QPatch 16 (Sophion Bioscience, Ballerup, Denmark) at room temperature (21-25° C.). Immediately following the establishment of giga-seal whole-cell configuration, the cells membrane potential is clamped at 0 mV. Voltage ramps of 50 ms duration spanning the voltage range of −100 to +100 mV are then stimulated at a rate of 0.33 Hz. Currents are filtered at 2.9 kHz and digitized at 200 μs intervals. Capacitive currents and series resistance are determined and corrected before each voltage ramp using the automatic capacitance compensation.
In general, a whole cell patch clamp method is used to examine the effects of a compound of the invention on a channel(s) that mediates ICRAC. In such experiments, a baseline ICRAC measurement is established within the first 70 voltage ramps, or 140 seconds, for a patched cell. Then the cells are perfused with the compound to be tested and the effect of the compound on ICRAC is measured for at least an additional 440 to 500 seconds. A compound that modulates ICRAC (e.g., inhibits) is a compound that is useful in the invention for modulating CRAG ion channel activity.
Off-line analysis with the Heka PatchMaster software is used to separate the ICRAC membrane current from the cells basal background currents. In a typical recording, InsP3 stimulated ICRAC currents begin to develop in 6 to 12 seconds after whole cell is established. Therefore, the first 1-4 voltage ramps represent the basal membrane currents in the absence of ICRAC and the average value is subtracted from all subsequent traces. The current value at −80 mV for each ramp trace is then measured and plotted against time. The resulting current versus time data is exported into a Microsoft Excel spreadsheet. The % ICRAC inhibition in each cell is calculated by comparing the amount of current just prior to the compound perfusion to the amount of current after the cells has been perfused with the compound for 440-500 seconds. The IC50 value and Hill coefficient for each compound is estimated by fitting all the individual data points to a single-site Hill equation.
TREx™-CHO cells were transfected with human Stim1 (recombinant DNA in pcDNA4/TO/myc-His™ A with a myc epitope tag in the N-terminal) and either CracM1, CracM2 or CracM3 (recombinant DNA in pcDNA 3.1 with a HA epitope tag in the N-terminal). Stably expressing cells were selected by growing the transfected cells in antibiotics for two to three weeks. Individual cell clones were isolated via serial dilution. Full length human Stim1, CracM1, CracM2 and CracM3 cDNA, TREx™-CHO cells, pcDNA4/TO/myc-His™ A and pcDNA 3.1 were purchased from Invitrogen (Carlsbad, Calif.). All cells clones are grown in Ham's F-12 media supplemented with 10% fetal bovine serum, penicillin 100 U/ml, streptomycin 100 ? g/ml, Zeocin™ (200 ? g/ml), Geneticin (500 ? g/ml) and blasticidin (10 ? g/ml) in an atmosphere of 95% air/5% CO2. Stim1 expression was induced with doxycycline (1 ? g/ml) for 16-20 hrs. […]
Background: In patch-clamp work, channel activity is measured electrically.

SMILES strings stand for the structures. Counter-ions that a name gives are not always drawn.

T1 sequence (Q96D31 whole entry): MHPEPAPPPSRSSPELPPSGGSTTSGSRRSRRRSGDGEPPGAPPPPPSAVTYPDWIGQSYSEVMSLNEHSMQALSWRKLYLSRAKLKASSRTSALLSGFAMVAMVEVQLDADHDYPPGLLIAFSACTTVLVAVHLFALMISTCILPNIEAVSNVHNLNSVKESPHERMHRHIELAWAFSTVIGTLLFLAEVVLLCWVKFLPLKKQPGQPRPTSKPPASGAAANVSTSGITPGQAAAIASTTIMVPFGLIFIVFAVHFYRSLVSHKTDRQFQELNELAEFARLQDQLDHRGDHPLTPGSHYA

In general, IC50 refers to the concentration that gives 50% inhibition. High values mean weaker potency in that assay, low ones greater potency in that assay. As a reminder, the inhibition is the change of the read-out against control, counted positive when it falls. Read a high inhibition as strong suppression. For the compound `Cc1ccc(CCc2ccccn2)cc1-c1ccc(NC(=O)c2c(F)cccc2F)cc1` [Compound 17, 2,6-difluoro-N-(2′-methyl-5′-(2-(pyridin-2-yl)ethyl)biphenyl-4-yl)benzamide], the IC50 in assay [1] lay in the range of 50 to 100 nM. Also, the inhibition at 0.5 µM on CRACM1/STIM1-CHOK1 was in the range of 70 to 100%.

In the case of `Cn1cncc1-c1cnc(-c2ccc(Cl)c(-c3ccc(NC(=O)c4c(F)cccc4F)nc3)c2)s1` [Compound 18, N-(5-(2-chloro-5-(5-(1-methyl-1H-imidazol-5-yl)thiazol-2-yl)phenyl)pyridin-2-yl)-2,6-difluorobenzamide], the IC50 in assay [1] was in the range of 50 to 100 nM. Also, the inhibition at 0.5 µM on CRACM1/STIM1-CHOK1 was in the range of 50 to 70%.

In the case of `Cc1ccc(-c2nc(-c3cccnc3)cs2)cc1-c1ccc(NC(=O)c2c(F)cccc2F)cc1` [Compound 19, 2,6-difluoro-N-(2′-methyl-5′-(4-(pyridin-3-yl)thiazol-2-yl)biphenyl-4-yl)benzamide hydrochloride], in assay [1], the IC50 is < 50 nM. The inhibition at 0.5 µM at CRACM1/STIM1-CHOK1 was < 50%.

As for `Cc1ccc(-c2nc(-c3cccnc3)cs2)cc1-c1cnc(NC(=O)c2c(F)cccc2F)cn1` [Compound 20, 2,6-difluoro-N-(5-(2-methyl-5-(4-(pyridin-3-yl)thiazol-2-yl)phenyl)pyrazin-2-yl)benzamide], the IC50 in assay [1] is < 50 nM. Further, the inhibition at 0.5 µM against CRACM1/STIM1-CHOK1 lay within 70 to 100%.

For the compound `Cc1ccc(-c2ncc(-c3cnco3)s2)cc1-c1ccc(NC(=O)c2c(F)cccc2F)cc1` [Compound 21, 2,6-difluoro-N-(2′-methyl-5′-(5-(oxazol-5-yl)thiazol-2-yl)biphenyl-4-yl)benzamide], the 50% inhibitory concentration (IC50) in assay [1] is 50 to 100 nM. For the same compound, the inhibition at 0.5 µM at CRACM1/STIM1-CHOK1 is < 50%.

`COc1ccc(-c2ccc(C)c(-c3ccc(NC(=O)c4c(F)cccc4F)cc3)c2)cn1` [Compound 22, 2,6-difluoro-N-(5′-(6-methoxypyridin-3-yl)-2′-methylbiphenyl-4-yl)benzamide]: the IC50 in assay [1] was < 50 nM. At CRACM1/STIM1-CHOK1, this compound registered an inhibition at 0.5 µM of 70 to 100%.

These data come from patent US20100130522A1, “COMPOUNDS FOR INFLAMMATION AND IMMUNE-RELATED USES” (Synta Pharmaceuticals Corp., priority 2008, published 2010).
